The record followed here is publication PMC8398262, “New Sulfanilamide Derivatives Incorporating Heterocyclic Carboxamide Moieties as Carbonic Anhydrase Inhibitors” (Pharmaceuticals, 2021).

Each structure is given as a SMILES string.

The target in data set [1] is T1, hCA I (Homo sapiens, UniProt P00915).
T1 construct: made in house
In words: stopped-flow CO2 hydrase assay, hCA I. The settings on record: mean from 3 different assays, errors ±5–10%. The data set is classed as biochemical. As for the experimental part:
(§1) For each inhibitor, at least six traces of the initial 5–10% of the reaction were used for determining the initial velocity. The uncatalyzed rates were determined in the same manner and subtracted from the total observed rates. Stock solutions of the inhibitor (0.1 mM) were prepared in distilled–deionized water and dilutions up to 0.01 nM were done thereafter with the assay buffer. Inhibitor and enzyme solutions were preincubated together for 15 min at room temperature prior to the assay, allowing the formation of the E–I complex.

The target in data set [2] is T2, hCA II (Homo sapiens, UniProt P00918).
T2 construct: made in house
In words: stopped-flow CO2 hydrase assay, hCA II. Format: biochemical. The settings on record: for Ki: stopped-flow CO2 hydrase assay, mean from 3 different assays, errors ±5–10%. Here is the method: as §1

Data set [3] addresses T3, hCA IX (Homo sapiens, UniProt Q16790).
T3 construct: made in house
The data set is described as follows: stopped-flow CO2 hydrase assay, hCA IX. Format: biochemical. To be noted: mean from 3 different assays, errors ±5–10%. As for the experimental part:
as §1

In data set [4] the target is T4, hCA XII (Homo sapiens, UniProt O43570).
T4 construct: made in house
T4 sequence (O43570 25-354): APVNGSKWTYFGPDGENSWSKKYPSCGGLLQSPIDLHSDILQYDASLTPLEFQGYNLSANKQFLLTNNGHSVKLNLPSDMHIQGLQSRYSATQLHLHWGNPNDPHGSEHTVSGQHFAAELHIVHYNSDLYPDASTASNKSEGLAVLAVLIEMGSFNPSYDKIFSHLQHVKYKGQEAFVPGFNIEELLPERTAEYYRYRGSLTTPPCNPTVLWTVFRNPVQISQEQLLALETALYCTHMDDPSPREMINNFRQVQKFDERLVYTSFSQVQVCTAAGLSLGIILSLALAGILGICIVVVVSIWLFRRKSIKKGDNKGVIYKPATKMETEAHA
The data set is described as follows: stopped-flow CO2 hydrase assay, hCA XII. The data set is classed as biochemical. To be noted: mean from 3 different assays, errors ±5–10%. Here is the method:
as §1

T1 sequence (P00915 whole entry): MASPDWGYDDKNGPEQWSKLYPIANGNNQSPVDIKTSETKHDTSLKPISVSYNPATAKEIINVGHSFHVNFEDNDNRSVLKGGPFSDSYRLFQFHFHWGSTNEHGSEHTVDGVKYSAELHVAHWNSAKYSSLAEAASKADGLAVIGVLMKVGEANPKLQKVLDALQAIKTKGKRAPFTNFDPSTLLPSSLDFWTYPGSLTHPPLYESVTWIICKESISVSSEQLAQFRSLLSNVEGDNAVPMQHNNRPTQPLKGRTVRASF

As to `Cn1c(C(=O)Nc2ccc(S(N)(=O)=O)cc2)cc2occc21` [Compound 7a, N-[4-(aminosulfonyl)phenyl]-4-methyl-4H-furo[3,2-b]pyrrole-5-carboxamide], the melting point lay in the range of 273 to 275 °C. Further, the affinity in data set [1], expressed as Ki, was 718 nM. The compound further had a Ki in data set [2] of 8.4 nM. Further, affinity in data set [3] was put at a Ki of 103 nM. Also, the Ki in data set [4] turned out to be 6.9 nM.
The corresponding values for `NS(=O)(=O)c1ccc(NC(=O)c2cc3occc3n2Cc2ccccc2)cc1` [Compound 7c, N-[4-(aminosulfonyl)phenyl]-4-benzyl-4H-furo[3,2-b]pyrrole-5-carboxamide] are 240 to 241 °C, 3560 nM, 37.5 nM, 276 nM and 4.6 nM.
`NS(=O)(=O)c1ccc(NC(=O)c2cc3occc3n2Cc2ccccc2F)cc1` [Compound 7d, N-[4-(aminosulfonyl)phenyl]-4-(2-fluorobenzyl)-4H-furo[3,2-b]pyrrole-5-carboxamide]: the melting point is 240 to 242 °C.
As for `NS(=O)(=O)c1ccc(NC(=O)c2cc3occc3n2Cc2ccccc2Cl)cc1` [Compound 7e, N-[4-(aminosulfonyl)phenyl]-4-(2-chlorobenzyl)-4H-furo[3,2-b]pyrrole-5-carboxamide], the melting point lay within 239 to 241 °C. In data set [1], this compound returned an inhibition constant (Ki) of 858 nM. In data set [2], this compound yielded a Ki of 23.8 nM. In data set [3], this compound registered a Ki of 239 nM. In data set [4], this compound registered an inhibitory constant (Ki) of 19.6 nM.
The corresponding values for `NS(=O)(=O)c1ccc(NC(=O)c2cc3occc3n2Cc2ccc(Cl)cc2)cc1` [Compound 7f, N-[4-(aminosulfonyl)phenyl]-4-(4-chlorobenzyl)-4H-furo[3,2-b]pyrrole-5-carboxamide] are 237 to 238 °C, 878 nM, 34.3 nM, 187 nM and 37.2 nM.
As for `Cn1c(C(=O)Nc2ccc(S(N)(=O)=O)cc2)cc2sccc21` [Compound 8a, N-[4-(aminosulfonyl)phenyl]-4-methyl-4H-thieno[3,2-b]pyrrole-5-carboxamide], the melting point lay in the range of 276 to 278 °C. Besides, the Ki in data set [1] worked out at 665 nM. The “selectivity index (SI) towards hCA I” value in data set [2] (selectivity for hCA II over hCA I) was determined as 75.5. In addition, the “selectivity index (SI) compared to hCA IX” value in data set [2] (selectivity for hCA II over hCA IX) was found to be 7.6. Also, the “selectivity index (SI) to hCA XII” value in data set [2] (selectivity for hCA II over hCA XII) amounted to 3.5. Further, the inhibition constant Ki in data set [2] came to 8.8 nM. In data set [3], this compound had a Ki of 66.6 nM. This compound also came in with a Ki in data set [4] of 30.7 nM.
Consider `CCn1c(C(=O)Nc2ccc(S(N)(=O)=O)cc2)cc2sccc21` [Compound 8b, N-[4-(aminosulfonyl)phenyl]-4-ethyl-4H-thieno[3,2-b]pyrrole-5-carboxamide], for which the melting point fell in the range of 248 to 249 °C. The compound further came in with a Ki in data set [1] of 270 nM. In data set [2], the Ki is 6.8 nM. The same compound returned a Ki in data set [3] of 251 nM. Moreover, the affinity in data set [4], expressed as Ki, was 5.1 nM.
The corresponding values for `NS(=O)(=O)c1ccc(NC(=O)c2cc3sccc3n2Cc2ccccc2)cc1` [Compound 8c, N-[4-(aminosulfonyl)phenyl]-4-benzyl-4H-thieno[3,2-b]pyrrole-5-carboxamide] are 255 to 256 °C, 400 nM, 8.9 nM, 140 nM and 7.8 nM.
The corresponding values for `NS(=O)(=O)c1ccc(NC(=O)c2cc3sccc3n2Cc2ccccc2F)cc1` [Compound 8d, N-[4-(aminosulfonyl)phenyl]-4-(2-fluorobenzyl)-4H-thieno[3,2-b]pyrrole-5-carboxamide] are 235 to 237 °C, 656 nM, 8.7 nM, 171 nM and 8.2 nM.
The corresponding values for `NS(=O)(=O)c1ccc(NC(=O)c2cc3sccc3n2Cc2ccc(Cl)cc2)cc1` [Compound 8f, N-[4-(aminosulfonyl)phenyl]-4-(4-chlorobenzyl)-4H-thieno[3,2-b]pyrrole-5-carboxamide] are 219 to 220 °C, 699 nM, 68.1 nM, 81.4 nM and 8.9 nM.
For the compound `CC1(C(=O)Nc2ccc(S(N)(=O)=O)cc2)Oc2ccccc2NC1=O` (stereo not shown) [Compound 11, N-[4-(aminosulfonyl)phenyl]-2-methyl-3-oxo-3,4-dihydro-2H-1,4-benzoxazine-2-carboxamide], the melting point lay within 269 to 270 °C. Further, affinity in data set [1] was put at a Ki of 70.6 nM. In data set [2], this compound showed a Ki of 6.5 nM. The affinity in data set [3], expressed as Ki, was 260 nM. In data set [4], this compound gave an inhibition constant Ki of 5.3 nM.
As for `NS(=O)(=O)c1ccc(NC(=O)C2=C(c3ccccc3)SCCO2)cc1` [Compound 14a, N-[4-(aminosulfonyl)phenyl]-3-phenyl-5,6-dihydro-1,4-oxathiine-2-carboxamide], the Ki in data set [1] is 56.5 nM; in data set [2] it was 6.7 nM; in data set [3], 281 nM; in data set [4], 6.1 nM.
Consider `NS(=O)(=O)c1ccc(CCNC(=O)C2=C(c3ccccc3)SCCO2)cc1` [Compound 14b, N-{2-[4-(aminosulfonyl)phenyl]ethyl}-3-phenyl-5,6-dihydro-1,4-oxathiine-2-carboxamide], for which the melting point lay in the range of 208 to 209 °C. In data set [1], the Ki was determined as 71.2 nM. In addition, the inhibitory constant (Ki) in data set [2] was 7.4 nM. In data set [3], this compound gave a Ki of 155 nM. The same compound had an inhibition constant Ki in data set [4] of 6.6 nM.
The corresponding values for `NS(=O)(=O)c1ccc(-c2ccc(/C=c3\sc4nc(-c5cccc(Cl)c5)nn4c3=O)o2)cc1` [Compound 17a, 4-(5-{(Z)-[2-(3-chlorophenyl)-6-oxo[1,3]thiazolo[3,2-b][1,2,4]triazol-5(6H)-ylidene]methyl}-2-furyl)enzenesulfonamide] are 312 to 315 °C, 2920 nM, 44.7 nM, 320 nM and 7.6 nM.
The corresponding values for `COc1ccc(-c2nc3s/c(=C\c4ccc(-c5ccc(S(N)(=O)=O)cc5)o4)c(=O)n3n2)cc1OC` [Compound 17b, 4-(5-{(Z)-[2-(3,4-Dimethoxyphenyl)-6-oxo[1,3]thiazolo[3,2 b][1,2,4]triazol-5(6H)-ylidene]methyl} -2-furyl)benzenesulfonamide] are 294 to 295 °C, 918 nM, 59.4 nM, 253 nM and 40.2 nM.

A word on the Ki: it is the equilibrium dissociation constant of an inhibitor or competing ligand from its target. Usually melting point stands for the temperature, or range, at which the solid turns liquid.
